For the first experiment, the target named is SARS-CoV-2 MPRO (Severe acute respiratory syndrome coronavirus 2 (2019-nCoV) (SARS-CoV-2), UniProt P0DTD1). Description: SARS-CoV-2 Mpro enzymatic assay (FRET substrate cleavage). Format: biochemical. The settings on record: C-His6-tagged SARS-CoV-2 MPRO 25 nM, 30 min pre-incubation at RT, 60 min at 30° C., 10 doses from 25 μM; read-out: M pro IC50.
In the case of `C[C@](C(=O)NC1CCOC1)(c1cncnc1)N(C(=O)[C@H](F)Cl)c1ccc(OC(F)(F)F)cc1` (single isomer, unassigned) [Example 6a], the 50% inhibitory concentration (IC50) was < 100 nM.
Turning to `C[C@](C(=O)NC1CCOC1)(c1cncnc1)N(C(=O)[C@H](F)Cl)c1ccc(OC(F)(F)F)cc1` (single isomer, unassigned) [Example 6b], the 50% inhibitory concentration (IC50) was < 100 nM.
Consider `C[C@@](C(=O)NC1CCOC1)(c1cncnc1)N(C(=O)[C@H](F)Cl)c1ccc(OC(F)(F)F)cc1` (single isomer, unassigned) [Example 6c], for which the IC50 is 1000 to 10000 nM.
As for `C[C@@](C(=O)NC1CCOC1)(c1cncnc1)N(C(=O)[C@H](F)Cl)c1ccc(OC(F)(F)F)cc1` (single isomer, unassigned) [Example 6d], the half-inhibitory concentration (IC50) was > 10000 nM.
Still for that read-out and setting: as for `CC1(C)C[C@H](NC(=O)[C@@](C)(c2cncnc2)N(C(=O)[C@H](F)Cl)c2ccc(OC(F)(F)F)cc2)CCO1` (single isomer, unassigned) [Example 77a], the figure is < 100 nM; as for `C[C@@](C(=O)NC1CCC(F)(F)CC1)(c1cncnc1)N(C(=O)[C@H](F)Cl)c1ccc(-c2cncs2)cc1` [Example 1b], 1000 to 10000 nM; as for `C[C@](C(=O)NC1CCC(F)(F)CC1)(c1cncnc1)N(C(=O)[C@H](F)Cl)c1ccc(-c2ccno2)cc1` [Example 2a], < 100 nM.
In the case of `C[C@@](C(=O)NC1CCC(F)(F)CC1)(c1cncnc1)N(C(=O)[C@H](F)Cl)c1ccc(-c2ccno2)cc1` [Example 2b], the IC50 lay within 1000 to 10000 nM.
As to `[2H][C@](C(=O)NC1CCC(F)(F)CC1)(c1cncnc1)N(C(=O)[C@H](F)Cl)c1ccc(OC(F)(F)F)cc1` [Example 3a], the IC50 was < 100 nM.
In the case of `[2H][C@@](C(=O)NC1CCC(F)(F)CC1)(c1cncnc1)N(C(=O)[C@H](F)Cl)c1ccc(OC(F)(F)F)cc1` [Example 3b], the IC50 is > 10000 nM.
On the same count and under the same terms, as for `C[C@](C(=O)NC1CCC(F)(F)CC1)(c1cncnc1)N(C(=O)[C@H](F)Cl)c1ccc(OC(F)(F)F)cc1` [Example 4a], the figure is < 100 nM; as for `C[C@@](C(=O)NC1CCC(F)(F)CC1)(c1cncnc1)N(C(=O)[C@H](F)Cl)c1ccc(OC(F)(F)F)cc1` [Example 4b], 1000 to 10000 nM; as for `C[C@](C(=O)NC1CCOCC1)(c1cncnc1)N(C(=O)[C@H](F)Cl)c1ccc(OC(F)(F)F)cc1` [Example 5a], < 100 nM.

The same experiment, now with this note: M pro IC50, C-His6-tagged SARS-CoV-2 MPRO 25 nM, 30 min pre-incubation at RT, 60 min at 30° C., 10 doses from 25 μM.
Regarding `Cn1ccc([C@@](C)(C(=O)NC2CCC(F)(F)CC2)N(C(=O)[C@H](F)Cl)c2ccc(OC(F)(F)F)cc2)cc1=O` (single isomer, unassigned) [Example 13b], the 50% inhibitory concentration (IC50) was > 10000 nM.
As for `C[C@](C(=O)NC1CCC(F)(F)CC1)(c1cncnc1)N(C(=O)[C@H](F)Cl)c1ccc(SC(F)(F)F)cc1` (single isomer, unassigned) [Example 33a], the IC50 was < 100 nM.
Turning to `CC1(C)COCC[C@H]1NC(=O)[C@](C)(c1cncnc1)N(C(=O)[C@H](F)Cl)c1ccc(OC(F)(F)F)cc1` (single isomer, unassigned) [Example 76c], the half-inhibitory concentration (IC50) was > 10000 nM.
Consider `CC1(C)COCC[C@@H]1NC(=O)[C@](C)(c1cncnc1)N(C(=O)[C@H](F)Cl)c1ccc(OC(F)(F)F)cc1` (single isomer, unassigned) [Example 76d], for which the IC50 was > 10000 nM.
With `CC1(C)C[C@H](NC(=O)[C@](C)(c2cncnc2)N(C(=O)[C@H](F)Cl)c2ccc(OC(F)(F)F)cc2)CCO1` (single isomer, unassigned) [Example 77c], the IC50 lay within 1000 to 10000 nM.
Still for that read-out and setting: in the case of `CC1(C)C[C@@H](NC(=O)[C@](C)(c2cncnc2)N(C(=O)[C@H](F)Cl)c2ccc(OC(F)(F)F)cc2)CCO1` (single isomer, unassigned) [Example 77d] it was > 10000 nM.
For the molecule `C[C@@](C(=O)NC1CCC2(CC1)COC2)(c1cncnc1)N(C(=O)[C@H](F)Cl)c1ccc(OC(F)(F)F)cc1` (single isomer, unassigned) [Example 107b], the IC50 was > 10000 nM.
Still for that read-out and setting: in the case of `CC(C(=O)N[C@H]1CC[C@H](OC(F)(F)F)CC1)(c1cncnc1)N(C(=O)[C@H](F)Cl)c1ccc(OC(F)(F)F)cc1` (stereo in doubt) [Example 8] it was < 100 nM.

Values taken from US11731944B2, “SARS-CoV-2 inhibitors for treating coronavirus infections” (priority 2021, dated 2023).
